Data: patent publication US10597388B2, “Pyridazinone herbicides” (FMC CORPORATION, priority 2014, dated 2020)

Key:
Type in all cases: in vivo
[1] = system: blackgrass (Alopecurus myosuroides); experiment: Test A greenhouse herbicide test, postemergence; details: for Plant response rating, Blackgrass: 125 g ai/ha, visual rating after approx. 10 d, 0 to 100 scale (0 no effect, 100 complete control); for Blackgrass plant response rating: 500 g ai/ha, 0 to 100 scale, 0 is no effect, 100 is complete control
Outline: (§1)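 Scores are visual injury ratings from 0 (no effect) to 100 (complete control) versus untreated plants, taken roughly 10 d after treatment in the greenhouse. Treatment was postemergence, on one- to two-leaf plants 2–10 cm high growing in a loam soil/sand mix.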

[2] = system: galium (catchweed bedstraw, Galium aparine); experiment: Test A greenhouse herbicide test, postemergence; details: for Plant response rating, Galium: 125 g ai/ha, visual rating after approx. 10 d, 0 to 100 scale (0 no effect, 100 complete control); for Galium plant response rating: 500 g ai/ha, 0 to 100 scale, 0 is no effect, 100 is complete control
Outline: as §1

[3] = system: barnyardgrass (Echinochloa crus-galli); experiment: Test B flooded paddy test; details: 250 g ai/ha, Flood; visual rating on scale of 0 to 100 where 0 is no effect and 100 is complete control; 13 to 15 d after treatment
Outline: (§2)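 Ratings use a 0-100 visual scale, where 100 is complete control, and compare treated plants with controls after 13 to 15 d of greenhouse growth. Compound went straight into paddy water kept 3 cm over the soil surface, applied to seedlings at the 2-leaf stage.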

[4] = system: ducksalad (Heteranthera limosa); experiment: Test B flooded paddy test; details: 250 g ai/ha, Flood; visual rating on scale of 0 to 100 where 0 is no effect and 100 is complete control; 13 to 15 d after treatment
Outline: as §2

rice (Oryza sativa) = experiment: Test B flooded paddy test; details: 250 g ai/ha, Flood; visual rating on scale of 0 to 100 where 0 is no effect and 100 is complete control; 13 to 15 d after treatment
Outline: as §2

[5] = system: sedge, umbrella (small-flower umbrella sedge, Cyperus difformis); experiment: Test B flooded paddy test; details: 250 g ai/ha, Flood; visual rating on scale of 0 to 100 where 0 is no effect and 100 is complete control; 13 to 15 d after treatment
Outline: as §2

[6] = system: johnsongrass (Sorghum halepense); experiment: Test C greenhouse herbicide test, pre- and postemergence
From the text: (§3) Seeds of plant species selected from blackgrass (Alopecurus myosuroides), ryegrass, Italian (Italian ryegrass, Lolium multiflorum), wheat (winter wheat, Triticum aestivum), galium (catchweed bedstraw, Galium aparine), corn (Zea mays), large crabgrass, large (large crabgrass, Digitaria sanguinalis), foxtail, giant (giant foxtail, Setaria faberii), johnsongrass (Sorghum halepense), lambsquarters (Chenopodium album), morningglory (Ipomoea coccinea), nutsedge, yellow (yellow nutsedge, Cyperus esculentus), pigweed (Amaranthus retroflexus), ragweed (common ragweed, Ambrosia elatior), soybean (Glycine max), barnyardgrass (Echinochloa crus-galli), oilseed rape (Brassica napus), waterhemp (common waterhemp, Amaranthus rudis), and velvetleaf (Abutilon theophrasti) were planted into a blend of loam soil and sand and treated preemergence with test chemicals formulated in a non-phytotoxic solvent mixture which included a surfactant.
(§4) At the same time, plants selected from these crop and weed species and also chickweed (common chickweed, Stellaria media), kochia (Kochia scoparia), and oat, wild (wild oat, Avena fatua), were planted in pots containing Redi-Earth® planting medium (Scotts Company, 14111 Scottslawn Road, Marysville, Ohio 43041) comprising spaghnum peat moss, vermiculite, wetting agent and starter nutrients and treated with postemergence applications of test chemicals formulated in the same manner. Plants ranged in height from 2 to 18 cm (1- to 4-leaf stage) for postemergence treatments. Treated plants and controls were maintained in a greenhouse for 13 to 15 d, after which time all species were compared to controls and visually evaluated. Plant response ratings, summarized in Table C, are based on a scale of 0 to 100 where 0 is no effect and 100 is complete control. A dash (-) response means no test result.

[7] = system: nutsedge, yellow (yellow nutsedge, Cyperus esculentus); experiment: as above
From the text: as §3, §4

soybean (Glycine max) = experiment: as above
From the text: as §3, §4

[8] = system: chickweed (common chickweed, Stellaria media); experiment: Test C greenhouse herbicide test, postemergence
Outline: (§5)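 Postemergence foliar treatment, 1- to 4-leaf stage (2–18 cm), peat/vermiculite medium; greenhouse 13–15 d; visual rating vs controls, 0 = no effect, 100 = complete control; dash = no result.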

kochia (Kochia scoparia) = experiment: Test C greenhouse herbicide test, postemergence
Outline: as §5

[9] = system: oat, wild (wild oat, Avena fatua); experiment: Test C greenhouse herbicide test, postemergence
Outline: as §5

[10] = Postemergence, 31 g ai/ha, 0 to 100 scale (0 no effect, 100 complete control)
[11] = Postemergence, 125 g ai/ha, scale 0 to 100, 0 is no effect, 100 is complete control
[12] = Postemergence, 250 g ai/ha, scale 0 to 100, 0 no effect, 100 complete control, 13 to 15 d
[13] = Preemergence, 31 g ai/ha, scale 0 to 100, 0 is no effect, 100 is complete control
[14] = Preemergence, 62 g ai/ha, scale 0 to 100, 0 is no effect, 100 is complete control
[15] = Preemergence, 125 g ai/ha, scale 0 to 100, 0 is no effect, 100 is complete control
[16] = Preemergence, 250 g ai/ha, scale 0 to 100, 0 no effect, 100 complete control
[17] = postemergence, 62 g ai/ha, scale 0 to 100, 0 no effect, 100 complete control

Cc1ccc2ccccc2c1-c1c(O)c(Br)nn(C)c1=O [Compound 23]
Plant response rating, Blackgrass [1]: 70 | Blackgrass plant response rating [1]: 80 | Plant response rating, Galium [2]: 100 | Galium plant response rating [2]: 100 | Plant response rating, Barnyardgrass [3]: 0 | Plant response rating, Ducksalad [4]: 75 | Plant response rating, Rice (rice (Oryza sativa)): 0 | Plant response rating, Sedge, Umbrella [5]: 95 | Johnsongrass plant response rating [6, 10]: 5 | Plant response rating, Johnsongrass [6, 11]: 10 | Plant response rating, Johnsongrass [6, 12]: 40 | Plant response rating, Johnsongrass [6, 13]: 5 | Plant response rating, Johnsongrass [6, 14]: 5 | Plant response rating, Johnsongrass [6, 15]: 35 | Johnsongrass plant response rating [6, 16]: 35 | Johnsongrass plant response rating [6, 17]: 5 | Nutsedge, Yellow plant response rating [7, 10]: 60 | Plant response rating, Nutsedge, Yellow [7, 11]: 85 | Plant response rating, Nutsedge, Yellow [7, 12]: 85 | Plant response rating, Nutsedge, Yellow [7, 13]: 40 | Plant response rating, Nutsedge, Yellow [7, 14]: 90 | Plant response rating, Nutsedge, Yellow [7, 15]: 85 | Nutsedge, Yellow plant response rating [7, 16]: 90 | Nutsedge, Yellow plant response rating [7, 17]: 70 | Soybean plant response rating (soybean (Glycine max); [10]): 5 | Plant response rating, Soybean (soybean (Glycine max); [11]): 10 | Plant response rating, Soybean (soybean (Glycine max); [12]): 15 | Plant response rating, Soybean (soybean (Glycine max); [14]): 0 | Plant response rating, Soybean (soybean (Glycine max); [15]): 5 | Soybean plant response rating (soybean (Glycine max); [16]): 55 | Soybean plant response rating (soybean (Glycine max); [17]): 10 | Chickweed plant response rating [8, 10]: 100 | Plant response rating, Chickweed [8, 11]: 100 | Plant response rating, Chickweed [8, 12]: 100 | Chickweed plant response rating [8, 17]: 100 | Kochia plant response rating (kochia (Kochia scoparia); [10]): 95 | Plant response rating, Kochia (kochia (Kochia scoparia); [11]): 100 | Plant response rating, Kochia (kochia (Kochia scoparia); [12]): 100 | Kochia plant response rating (kochia (Kochia scoparia); [17]): 95 | Oat, Wild plant response rating [9, 10]: 85 | Plant response rating, Oat, Wild [9, 11]: 100 | Plant response rating, Oat, Wild [9, 12]: 100 | Oat, Wild plant response rating [9, 17]: 95

Cc1ccc2sc(C)c(-c3c(OC(=O)C(C)(C)C)c(C)nn(C)c3=O)c2c1 [Compound 26]
Plant response rating, Blackgrass [1]: 30 | Blackgrass plant response rating [1]: 70 | Plant response rating, Galium [2]: 70 | Galium plant response rating [2]: 90 | Plant response rating, Barnyardgrass [3]: 0 | Plant response rating, Ducksalad [4]: 0 | Plant response rating, Rice (rice (Oryza sativa)): 0 | Plant response rating, Sedge, Umbrella [5]: 0 | Johnsongrass plant response rating [6, 10]: 5 | Plant response rating, Johnsongrass [6, 11]: 5 | Plant response rating, Johnsongrass [6, 12]: 5 | Johnsongrass plant response rating [6, 17]: 5 | Nutsedge, Yellow plant response rating [7, 10]: 5 | Plant response rating, Nutsedge, Yellow [7, 11]: 20 | Plant response rating, Nutsedge, Yellow [7, 12]: 25 | Nutsedge, Yellow plant response rating [7, 17]: 10 | Soybean plant response rating (soybean (Glycine max); [10]): 5 | Plant response rating, Soybean (soybean (Glycine max); [11]): 10 | Plant response rating, Soybean (soybean (Glycine max); [12]): 10 | Soybean plant response rating (soybean (Glycine max); [17]): 5 | Chickweed plant response rating [8, 10]: 95 | Plant response rating, Chickweed [8, 11]: 100 | Plant response rating, Chickweed [8, 12]: 100 | Chickweed plant response rating [8, 17]: 95 | Kochia plant response rating (kochia (Kochia scoparia); [10]): 80 | Plant response rating, Kochia (kochia (Kochia scoparia); [11]): 90 | Plant response rating, Kochia (kochia (Kochia scoparia); [12]): 100 | Kochia plant response rating (kochia (Kochia scoparia); [17]): 70 | Oat, Wild plant response rating [9, 10]: 60 | Plant response rating, Oat, Wild [9, 11]: 95 | Plant response rating, Oat, Wild [9, 12]: 90 | Oat, Wild plant response rating [9, 17]: 80
